Series [1] is described as follows: Aqueous solubility of crystalline Compound A at physiological pHs. It is filed as physicochemical.
Series [2] can be described thus: Pharmacokinetics / bioavailability in monkeys. The conditions noted are these: IV, 1.25 mg/kg, fed.
The nature of series [3]: Caco-2 assay (permeability). In kind it is in vitro ADME. The conditions noted are these: human. The text has this: The permeability of the compound is not high as determined with the Caco-2 assay value of 0.8×10^−6 cm/s. The poor solubility and the targeted high doses/frequency of dosing for this series of compounds led to the categorization of Compound A as BCS class IV compound (poor solubility/poor permeability).
For orientation: Caco-2 monolayers are a common model of the intestinal barrier.

Series [4] is described as follows: Solubility in bio-relevant fluids (FaSSIF, FeSSIF). It is filed as physicochemical. The conditions noted are these: thermodynamic from solid, 37° C. As for the experimental part: Approximately 5 mg of Compound A as MBP was placed in 20 mL of 37° C. bio-relevant fluids (Fasted State Simulated Intestinal Fluid and Fed State Simulated Intestinal Fluid) and was filtered through a 0.2 μm filter over time. The filtrate was then analyzed by HPLC.

Series [5] in a line: Salt screening: solubility of various salts of Compound A. Conditions: for solubility: salts of Compound A, at the pH of the same line.
A short description of series [6]: Animal pharmacokinetics study of formulations (FIG. 3). The conditions noted are these: oral formulations.
Setting [7] is: pH belonging to the solubility value of the salt.

The values below come from patent US10034854B2, “Pharmaceutical composition with improved bioavailability” (Hoffmann-La Roche Inc., priority 2013, dated 2018).

≈ marks a conversion by molar mass, not a printed value. Where two headings read alike, the source gives them in different places.

Consider `COc1cc(C(=O)O)ccc1NC(=O)[C@@H]1N[C@@H](CC(C)(C)C)[C@](C#N)(c2ccc(Cl)cc2F)[C@H]1c1cccc(Cl)c1F` [Compound A, 4-{[(2R,3S,4R,5S)-4-(4-Chloro-2-fluoro-phenyl)-3-(3-chloro-2-fluoro-phenyl)-4-cyano-5-(2,2-dimethyl-propyl)-pyrrolidine-2-carbonyl]-amino}-3-methoxy-benzoic acid], for which the solubility (commonly the concentration that dissolves in the medium under given conditions) in series [1] (aqueous medium, aqueous buffer, crystalline form, physiological pHs (pH 1.5-7.0)) was under 0.05 µg/mL. In addition, the solubility in series [1] (pH 1.5, aqueous buffer, crystalline forms, in water at physiological pHs (pH1.5-8.0)) was under 0.05 µg/mL. In series [2], the “% AUC Extrap” value is on record as 0.7% and the AUC/Dose was 10.3 µg·h/mL/mg/kg. For the same compound, the Papp (in general, a coefficient for how fast a substance crosses the barrier) in series [3] was determined as 0.8 ×10⁻⁶ cm/s.
With `COc1cc(C(=O)O)ccc1NC(=O)[C@@H]1N[C@@H](CC(C)(C)C)[C@](C#N)(c2ccc(Cl)cc2F)[C@H]1c1cccc(Cl)c1F` [Crystalline Form, 4-{[(2R,3S,4R,5S)-4-(4-Chloro-2-fluoro-phenyl)-3-(3-chloro-2-fluoro-phenyl)-4-cyano-5-(2,2-dimethyl-propyl)-pyrrolidine-2-carbonyl]-amino}-3-methoxy-benzoic acid], the solubility in series [4] (Fasted State Simulated Intestinal Fluid (FaSSIF), FaSSIF) was 2 µg/mL (≈ 3.24 µM); in series [4] (Fed State Simulated Intestinal Fluid (FeSSIF), FeSSIF), 3 µg/mL (≈ 4.87 µM).
For the compound `CNC[C@H](O)[C@@H](O)[C@H](O)[C@H](O)CO` [Meglamine], in series [5] (among the salts identified in salt screening), the “aqueous solubility (in words)” value is “most improved aqueous solubility”. The pH in series [5] (setting [7]) was determined as 7.8. The solubility in series [5] was over 1400 µg/mL. The “bioavailability (exposure) (in words)” value in series [6] was “not improved”.
Consider `CS(=O)(=O)O` [Methanesulfonic acid (Mesylate)], for which the pH in series [5] came to 3.1.
On to `[K+]` [Potassium], for which the pH in series [5] (setting [7]) is reported as 8.0. Besides, in series [5], the solubility was 0.5 µg/mL.
The like results for `Cc1ccc(S(=O)(=O)O)cc1` [p-Toluenesulfonic acid] were, in that order, 2.7 and under 0.02 µg/mL.
Regarding Sodium, the pH in series [5] (setting [7]) was 7.2. For the same compound, the solubility in series [5] came out at 0.7 µg/mL.
